Measurements as given in ChEMBL document CHEMBL6153037, “Developing dual-responsive quinolinium prodrugs of 8-hydroxyquinoline by harnessing the dual chelating sites” (Eur J Med Chem, 2025).
Calls of active or inactive are those of the source. The calls are words filed in the database; no cut-off is given here.

What was measured:
MDA-MB-231 [1] = assay: Induction of apoptosis in human MDA-MB-231 cells assessed as viable cells at 0.8 uM incubated for 24 hrs by Annexin V-FITC/PI staining based flow cytometry (reference value: 86.2 %); format: functional; settings: read-out: Activity
[2] = Prodrug conversion in solution containing Cu(II) assessed as 8-HQ-Cu(II) complex formation at 50 uM measured upto 30 mins by UV-Vis spectrophotometry; format: ADME; settings: 0.5 h
MDA-MB-231 [3] = assay: Induction of apoptosis in human MDA-MB-231 cells assessed as early apoptotic cells at 1.2 uM incubated for 24 hrs by Annexin V-FITC/PI staining based flow cytometry (reference value: 7.39 %); format: functional
MCF-10A [4] = assay: Induction of apoptosis in human MCF-10A cells assessed as early apoptotic cells at 1.2 uM incubated for 24 hrs by Annexin V-FITC/PI staining based flow cytometry (reference value: 2.96 %); format: toxicity, cell-based
MCF-10A [5] = assay: Inhibition of mitochondrial membrane potential in human MCF-10A cells assessed as increase in green fluorescence at 0.8 uM incubated for 24 hrs by JC-1 dye based analysis; format: toxicity, cell-based
[6] = Toxicity in BALB/c nude mouse xenografted with human MDA-MB-231 cells assessed as body weight change at 10 to 20 mg/kg, iv administered every two days for 21 days; format: organism-based; settings: in vivo, 504 h, dose 10-20 mg/kg, time 21 day
[7] = Prodrug conversion in solution containing ONOO- assessed as 8-HQ release; format: ADME
MCF-10A [8] = assay: Induction of apoptosis in human MCF-10A cells assessed as late apoptotic cells at 0.4 uM incubated for 24 hrs by Annexin V-FITC/PI staining based flow cytometry (reference value: 3.13 %); format: toxicity, cell-based
MCF-10A [9] = assay: Induction of apoptosis in human MCF-10A cells assessed as early apoptotic cells at 0.4 uM incubated for 24 hrs by Annexin V-FITC/PI staining based flow cytometry (reference value: 2.96 %); format: toxicity, cell-based
MDA-MB-231 [10] = assay: Antitumor activity against human MDA-MB-231 cells assessed as sphere-forming efficiency incubated for 6 hrs followed by medium replacement without compound measured after 6 days by microscopic analysis (reference value: 1.07 %); format: functional
MDA-MB-231 [11] = assay: Anti-migration activity in human MDA-MB-231 cells at 0.8 uM incubated for 48 hrs by wound healing assay (reference value: 65.2 %); format: functional
MDA-MB-231 [12] = assay: Cytotoxicity against NAC-treated human MDA-MB-231 cells incubated for 48 hrs by MTT assay; format: functional, cell-based
MCF-10A [13] = assay: Induction of apoptosis in human MCF-10A cells assessed as necrotic cells at 0.4 uM incubated for 24 hrs by Annexin V-FITC/PI staining based flow cytometry (reference value: 1.38 %); format: toxicity, cell-based
MCF-10A [14] = assay: Induction of apoptosis in human MCF-10A cells assessed as late apoptotic cells at 1.2 uM incubated for 24 hrs by Annexin V-FITC/PI staining based flow cytometry (reference value: 3.13 %); format: toxicity, cell-based
HeLa = assay: Cytotoxicity against CuCl2-treated human HeLa cells assessed as inhibition of cell viability incubated for 48 hrs by MTT assay; format: functional, cell-based
MDA-MB-231 [15] = assay: Cytotoxicity against human MDA-MB-231 cells assessed as increase in red fluorescence at 0.4 to 0.8 uM by Calcein AM/PI staining based analysis; format: functional, cell-based; settings: dose 0.4-0.8 µM
MDA-MB-231 [16] = assay: Antitumor activity against human MDA-MB-231 cells xenografted in BALB/c nude mouse at 20 mg/kg, iv administered every two days for 21 days relative to control; format: functional; settings: MDA-MB-231, 504 h, time 21 day, read-out: TGI
A549 = assay: Cytotoxicity against CuCl2-treated human A549 cells assessed as inhibition of cell viability incubated for 48 hrs by MTT assay; format: functional, cell-based; settings: A549, 48 h
[17] = Induction of apoptosis in human MCF-10A cells assessed as viable cells at 1.2 uM incubated for 24 hrs by Annexin V-FITC/PI staining based flow cytometry (reference value: 92.5 %); format: toxicity, cell-based; settings: read-out: Activity
MDA-MB-231 [18] = assay: Anti-migration activity in human MDA-MB-231 cells at 0.8 uM incubated for 24 hrs by wound healing assay (reference value: 45.4 %); format: functional
[19] = Stability of compound in PBS at pH 7.4 containing H2O2 assessed as compound remaining at 50 uM measured after 30 mins by HPLC analysis; format: physicochemical; settings: buffer, pH 7.4, 0.5 h
MDA-MB-231 [20] = assay: Antitumor activity against human MDA-MB-231 cells xenografted in BALB/c nude mouse assessed as tumor growth inhibition at 10 to 20 mg/kg, iv administered every two days for 21 days; format: functional, organism-based; settings: dose 10-20 mg/kg, time 21.0 day
MDA-MB-231 [21] = assay: Induction of apoptosis in human MDA-MB-231 cells assessed as early apoptotic cells at 0.8 uM incubated for 24 hrs by Annexin V-FITC/PI staining based flow cytometry (reference value: 7.39 %); format: functional

CC1(C)OB(c2ccc(C[n+]3cccc4cccc(O)c43)cc2)OC1(C)C.[Br-]
viability at 0.8 µM (MDA-MB-231 [1]): 24.8%
Drug metabolism [2]: metabolite_detected
Activity (MDA-MB-231 [3]): 71%
Activity (MCF-10A [4]): 2.12%
Activity (MCF-10A [5]): Non-toxic
Activity [6]: Non-toxic
Drug metabolism [7]: metabolite_detected
Activity (MCF-10A [8]): 2.74%
Activity (MCF-10A [9]): 2%
Activity (MDA-MB-231 [10]): 0.22%
Activity (MDA-MB-231 [11]): 12.8%
Activity (MDA-MB-231 [12]): inactive
Activity (MCF-10A [13]): 0.36%
Activity (MCF-10A [14]): 3.73%
IC50 (HeLa): 11.2 µM
Activity (MDA-MB-231 [15]): Active
inhibition in vivo at 20 mg/kg (MDA-MB-231 [16]): 63.1%
IC50 (A549): 3.48 µM
viability at 24 h, 1.2 µM [17]: 93.3%
Activity (MDA-MB-231 [18]): 7.3%
Stability [19]: Unstable
inhibition (MDA-MB-231 [20]): Active
Activity (MDA-MB-231 [21]): 40.3%
